# Source: patent US20240383904A1, “HETEROCYCLIC COMPOUNDS” (Hoffmann-La Roche Inc., priority 2021, published 2024)
# Biological target: T1, MAGL (Homo sapiens, UniProt Q99685)
# T1 sequence (Q99685 1-303): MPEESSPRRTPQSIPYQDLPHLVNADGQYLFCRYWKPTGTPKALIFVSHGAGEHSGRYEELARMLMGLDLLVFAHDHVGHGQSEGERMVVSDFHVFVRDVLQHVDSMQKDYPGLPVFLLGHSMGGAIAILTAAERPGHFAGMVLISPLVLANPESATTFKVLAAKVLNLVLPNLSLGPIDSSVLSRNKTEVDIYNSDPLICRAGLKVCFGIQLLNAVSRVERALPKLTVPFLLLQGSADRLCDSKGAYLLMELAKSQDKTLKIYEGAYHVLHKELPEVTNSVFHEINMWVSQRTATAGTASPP
# Assay: 2-AG assay: MAGL inhibitory activity by hydrolysis of 2-arachidonoylglycerol to arachidonic acid, followed by mass spectrometry
# Type: biochemical
# Conditions: 15 min preincubation, 30 min reaction at RT, 8 μM 2-arachidonoylglycerol
row,SMILES,IC50
1,"O=C1NC2(CO1)CN(C(=O)N1CC3(CCC(Cc4ccc(C(F)(F)F)nc4)C3)C1)C2 (stereo not shown) [Example 110, 2-[6-[[6-(trifluoromethyl)-3-pyridyl]methyl]-2-azaspiro[3.4]octane-2-carbonyl]-7-oxa-2,5-diazaspiro[3.4]octan-6-one]",0.24 nM
2,"O=C1NC2(CO1)CN(C(=O)N1CC3(CC[C@H](Cc4cnc(C(F)(F)F)cn4)C3)C1)C2 [Example 111, 2-[(6S)-6-[[5-(trifluoromethyl)pyrazin-2-yl]methyl]-2-azaspiro[3.4]octane-2-carbonyl]-7-oxa-2,5-diazaspiro[3.4]octan-6-one]",0.31 nM
3,"O=C1NC2(CO1)CN(C(=O)N1CC3(CCC(Cc4cnc(C(F)(F)F)cn4)CC3)C1)C2 [Example 112, 2-[7-[[5-(trifluoromethyl)pyrazin-2-yl]methyl]-2-azaspiro[3.5]nonane-2-carbonyl]-7-oxa-2,5-diazaspiro[3.4]octan-6-one]",0.57 nM
4,"O=C1NC2(CO1)CN(C(=O)N1CC3(CC[C@@H](Cc4cnc(C(F)(F)F)cn4)C3)C1)C2 [Example 113, 2-[(6R)-6-[[5-(trifluoromethyl)pyrazin-2-yl]methyl]-2-azaspiro[3.4]octane-2-carbonyl]-7-oxa-2,5-diazaspiro[3.4]octan-6-one]",0.62 nM
5,"O=C1NC2(CO1)CN(C(=O)N1CC3(CCC(NS(=O)(=O)c4cccc(OC(F)(F)F)c4)CC3)C1)C2 [Example 114, N-[2-(6-keto-7-oxa-2,5-diazaspiro[3.4]octane-2-carbonyl)-2-azaspiro[3.5]nonan-7-yl]-3-(trifluoromethoxy)benzene-sulfonamide]",0.63 nM
6,"O=C1NC2(CO1)CN(C(=O)N1CC3(CC(c4ccc(F)cc4)C3)C1)C2 [Example 115, 2-[6-(4-fluorophenyl)-2-azaspiro[3.3]heptane-2-carbonyl]-7-oxa-2,5-diazaspiro[3.4]octan-6-one]",1.02 nM
7,"O=C1CCC2(CN(C(=O)N3CC4(CCC(NS(=O)(=O)c5cccc(OC(F)(F)F)c5)CC4)C3)C2)N1 [Example 116, N-[2-(6-keto-2,5-diazaspiro[3.4]octane-2-carbonyl)-2-azaspiro[3.5]nonan-7-yl]-3-(trifluoromethoxy)benzene-sulfonamide]",1.73 nM
8,CS(=O)(=O)c1cc(C(F)(F)F)ccc1C1CC2(C1)CN(C(=O)N1CC3(COC(=O)N3)C1)C2 [Example 117],1.96 nM
9,"CS(=O)(=O)c1ccc(O[C@H]2CCC3(C2)CN(C(=O)N2CC4(COC(=O)N4)C2)C3)cc1C(F)(F)F [Example 118, 2-[(6S)-6-[4-mesy1-3-(trifluoromethyl)phenoxy]-2-azaspiro[3.4]octane-2-carbonyl]-7-oxa-2,5-diazaspiro[3.4]octan-6-one]",2.49 nM
10,"O=C1NC2(CO1)CN(C(=O)N1CC3(CC(NCC4(C(F)(F)F)CC4)C3)C1)C2 [Example 119, 2-[6-[[1-(trifluoromethyl)cyclopro-pyl]methylamino]-2-azaspiro[3.3]heptane-2-carbonyl]-7-oxa-2,5-diazaspiro[3.4]octan-6-one]",2.93 nM
11,"O=C1CCC2(CN(C(=O)N3CC4(CCC(Cc5ccc(Cl)cn5)CC4)C3)C2)N1 [Example 120, 2-[7-[(5-chloro-2-pyridyl)methyl]-2-azaspiro[3.5]nonane-2-carbonyl]-2,5-diazaspiro[3.4]octan-6-one]",2.95 nM
12,"O=C1CCC2(CN(C(=O)N3CC4(CCC(Cc5ccc(OC(F)F)nc5)CC4)C3)C2)N1 [Example 121, 2-[7-[[6-(difluoromethoxy)-3-pyridyl]methyl]-2-azaspiro[3.5]nonane-2-carbonyl]-2,5-diazaspiro[3.4]octan-6-one]",4.19 nM
13,"CS(=O)(=O)c1ccc(Cl)cc1OC1CCC2(CC1)CN(C(=O)N1CC3(COC(=O)N3)C1)C2 [Example 122, 2-[7-(5-chloro-2-mesyl-phenoxy)-2-azaspiro[3.5]nonane-2-carobnyl]-7-oxa-2,5-diazaspiro[3.4]octan-6-one]",4.33 nM
14,"O=C1NC2(CO1)CN(C(=O)N1CC3(CCC(Oc4ncc(C(F)(F)F)cn4)CC3)C1)C2 [Example 123, 2-[7-[5-(trifluoromethyl)pyrimi-din-2-yl]oxy-2-azaspiro[3.5]nonane-2-carbonyl]-7-oxa-2,5-diazaspiro[3.4]octan-6-one]",4.43 nM
15,"CS(=O)(=O)c1ccc(C2CC3(C2)CN(C(=O)N2CC4(COC(=O)N4)C2)C3)cc1 [Example 124, 2-[6-(4-mesylphenyl)-2-azaspiro[3.3]heptane-2-carbonyl]-7-oxa-2,5-diazaspiro[3.4]octan-6-one]",4.54 nM
16,"O=C1CCC2(CN(C(=O)N3CC4(CCC(Cc5ncc(F)cc5F)CC4)C3)C2)N1 [Example 125, 2-[7-[(3,5-difluoro-2-pyridyl)methyl]-2-azaspiro[3.5]nonane-2-carbonyl]-2,5-diazaspiro[3.4]octan-6-one]",5.81 nM
17,"O=C1NC2(CO1)CN(C(=O)N1CC3(CC(c4cncc(F)c4)C3)C1)C2 [Example 126, 2-[6-(5-fluoro-3-pyridyl)-2-azaspiro[3.3]heptane-2-carbonyl]-7-oxa-2,5-diazaspiro[3.4]octan-6-one]",21.3 nM

row,SMILES,IC50
1,"O=C1NCC2(CN(C(=O)N3CC4(CCC(OCC5(C(F)(F)F)CC5)CC4)C3)C2)N1 [Example 127, 2-[7-[[1-(trifluoromethyl)cyclopro-pyl]methoxy]-2-azaspiro[3.5]nonane-2-carbonyl]-2,5,7-triazaspiro[3.4]octan-6-one]",30.8 nM
2,"O=C1NCC2(CN(C(=O)N3CC4(CCC(Cc5ccc(OC(F)F)nc5)CC4)C3)C2)N1 [Example 128, 2-[7-[[6-(difluoromethoxy)-3-pyridyl]methyl]-2-azaspiro[3.5]nonane-2-carbonyl]-2,5,7-triazaspiro[3.4]octan-6-one]",51.9 nM
3,"O=C1CCC2(CN(C(=O)N3CC4(CCC(Nc5cnc(C(F)(F)F)cn5)CC4)C3)C2)N1 [Example 129, 2-[7-[[5-(trifluoromethyl)pyrazin-2-yl]amino]-2-azaspiro[3.5]nonane-2-carbonyl]-2,5-diazaspiro[3.4]octan-6-one]",66.7 nM
4,"O=C1NC2(CCO1)CN(C(=O)N1CC3(CCC(OCC4(C(F)(F)F)CC4)CC3)C1)C2 [Example 130, 2-[7-[[1-(trifluoromethyl)cyclopro-pyl]methoxy]-2-azaspiro[3.5]nonane-2-carbonyl]-7-oxa-2,5-diazaspiro[3.5]nonan-6-one]",186 nM
5,"O=C1CCC2(CN(C(=O)N3CC4(CC(n5cnc(C6CC6)n5)C4)C3)C2)N1 [Example 131, 2-[6-(3-cyclopropyl-1,2,4-triazol-1-yl)-2-azaspiro[3.3]heptane-2-carbonyl]-2,5-diazaspiro[3.4]octan-6-one]",209 nM
6,O=C1CCC2(CN(C(=O)N3CC4(CCN(Cc5ccc(C(F)(F)F)cc5F)CC4)C3)C2)N1 [Example 132],0.79 nM
7,"O=C1COCC2(CN(C(=O)N3CC4(CCC(Cc5ccc(OC(F)F)nc5)CC4)C3)C2)N1 [Example 133, 2-[7-[[6-(difluoromethoxy)-3-pyridyl]methyl]-2-azaspiro[3.5]nonane-2-carbonyl]-8-oxa-2,5-diazaspiro[3.5]nonan-6-one]",13.1 nM
8,"O=C1COCC2(CN(C(=O)N3CC4(CCN(Cc5cccc(S(=O)(=O)C(F)(F)F)c5)CC4)C3)C2)N1 [Example 134, 2-[7-(3-triflylbenzyl)-2,7-diazaspiro[3.5]nonane-2-carbonyl]-8-oxa-2,5-diazaspiro[3.5]nonan-6-one]",19.1 nM
9,O=C1NC2(CO1)CN(C(=O)N1CC3(CCN(Cc4ccc(C(F)(F)F)cc4F)CC3)C1)C2 [Example 135],1.01 nM
10,"O=C1CCC2(CN(C(=O)N3CC4(CCN(Cc5cccc(S(=O)(=O)C(F)(F)F)c5)CC4)C3)C2)N1 [Example 136, 2-[7-(3-triflylbenzyl)-2,7-diazaspiro[3.5]nonane-2-carbonyl]-2,5-diazaspiro[3.4]octan-6-one]",4.66 nM
11,"O=C1COCC2(CN(C(=O)N3CC4(CC(Cc5ccc(F)cc5F)C4)C3)C2)N1 [Example 137, 2-[6-(2,4-difluorobenzyl)-2-azaspiro[3.3]heptane-2-carbonyl]-8-oxa-2,5-diazaspiro[3.5]nonan-6-one]",0.97 nM
12,"O=C1COCC2(CN(C(=O)N3CC4(CC(Cc5cnc(C(F)(F)F)cn5)C4)C3)C2)N1 [Example 138, 2-[6-[[5-(trifluoromethyl)pyrazin-2-yl]methyl]-2-azaspiro[3.3]heptane-2-carbonyl]-8-oxa-2,5-diazaspiro[3.5]nonan-6-one]",51 nM
13,"O=C1NC2(CO1)CN(C(=O)N1CC3(CCN(Cc4cccc(S(=O)(=O)C(F)(F)F)c4)CC3)C1)C2 [Example 139, 2-[7-(3-triflylbenzyl)-2,7-diazaspiro[3.5]nonane-2-carbonyl]-7-oxa-2,5-diazaspiro[3.4]octan-6-one]",0.76 nM
14,"O=C1COCC2(CN(C(=O)N3CC4(CC(OCC5(C(F)(F)F)CC5)C4)C3)C2)N1 [Example 140, 2-[6-[[1-(trifluoromethyl)cyclopro-pyl]methoxy]-2-azaspiro[3.3]heptane-2-carbonyl]-8-oxa-2,5-diazaspiro[3.5]nonan-6-one]",78.9 nM
15,"O=C1COCC2(CN(C(=O)N3CC4(CCN(S(=O)(=O)c5ccc(C(F)(F)F)cc5F)CC4)C3)C2)N1 [Example 141, 2-[7-[2-fluoro-4-(trifluoromethyl)phenyl]sulfonyl-2,7-diazaspiro[3.5]nonane-2-carbonyl]-8-oxa-2,5-diazaspiro[3.5]nonan-6-one]",217 nM
16,O=C1COCC2(CN(C(=O)N3CC4(CC(Cc5cc(F)cc(C(F)(F)F)c5)C4)C3)C2)N1 [Example 142],0.45 nM
17,O=C1COCC2(CN(C(=O)N3CC4(CC(Cc5ccc(F)cc5C(F)(F)F)C4)C3)C2)N1 [Example 143],0.07 nM
